# Experimental data as given in PubChem BioAssay (NCI).
#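 These data come from cells grown in 96-well plates and exposed to compound for 48 hours at five concentrations. TGI is the concentration that stops growth completely.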
# Tests used:
# Experiment in all cases: NCI tumour cell line growth inhibition, 48 h
# KM12 colon = test system: KM12 colon
# T-47D breast = test system: T-47D breast
# TK-10 renal = test system: TK-10 renal
# UACC-257 melanoma = test system: UACC-257 melanoma
# SW-620 colon = test system: SW-620 colon
# COLO 205 colon = test system: COLO 205 colon
# EKVX NSCLC = test system: EKVX NSCLC
# MDA-MB-435 = test system: MDA-MB-435
# BT-549 breast = test system: BT-549 breast
# K-562 leukemia = test system: K-562 leukemia
# NCI/ADR-RES ovarian = test system: NCI/ADR-RES ovarian
# NCI-H522 lung = test system: NCI-H522 lung
# CAKI-1 renal = test system: CAKI-1 renal
Compound,TGI (KM12 colon),TGI (T-47D breast),TGI (TK-10 renal),TGI (UACC-257 melanoma),TGI (SW-620 colon),TGI (COLO 205 colon),TGI (EKVX NSCLC),TGI (MDA-MB-435),TGI (BT-549 breast),TGI (K-562 leukemia),TGI (NCI/ADR-RES ovarian),TGI (NCI-H522 lung),TGI (CAKI-1 renal)
c1ccc2cc3c(cc2c1)nc1ccccn13,> 100 µM,> 100 µM,> 100 µM,> 100 µM,> 100 µM,> 100 µM,> 100 µM,> 100 µM,> 100 µM,> 100 µM,> 100 µM,–,–
CC(C)C(NCc1c(O)ccc2c(-c3ccccc3)cc(=O)oc12)C(=O)O (stereo not drawn),> 100 µM,> 100 µM,> 100 µM,> 100 µM,> 100 µM,> 100 µM,> 100 µM,> 100 µM,–,> 100 µM,> 100 µM,> 100 µM,> 100 µM
CCc1n[nH]c(=O)n1CCO,> 100 µM,> 100 µM,> 100 µM,> 100 µM,> 100 µM,> 100 µM,> 100 µM,> 100 µM,> 100 µM,> 100 µM,> 100 µM,–,> 100 µM
COP(=O)(OC)/C(=C\c1cn(C(c2ccccc2)(c2ccccc2)c2ccccc2)cn1)NC(C)=O,> 100 µM,> 100 µM,> 100 µM,> 100 µM,> 100 µM,> 100 µM,> 100 µM,> 100 µM,–,> 100 µM,> 100 µM,> 100 µM,> 100 µM
Cc1nc2c(=O)n3c4c(cccc4c2o1)CCC3,> 100 µM,> 100 µM,> 100 µM,> 100 µM,> 100 µM,> 100 µM,> 100 µM,> 100 µM,> 100 µM,> 100 µM,> 100 µM,–,> 100 µM
CC(=O)OCC(Br)C1(C)CCC(C(C)(C)Br)O1 (stereo not drawn),> 100 µM,–,> 100 µM,45.2 µM,> 100 µM,> 100 µM,> 100 µM,> 100 µM,> 100 µM,> 100 µM,> 100 µM,86.7 µM,> 100 µM
O=c1ccn(C2OC(CN(O)CCC3C(CO)OC(n4ccc(=O)[nH]c4=O)C3O)C(O)C2O)c(=O)[nH]1 (stereo not drawn),> 100 µM,> 100 µM,> 100 µM,> 100 µM,> 100 µM,> 100 µM,> 100 µM,> 100 µM,> 100 µM,> 100 µM,> 100 µM,–,> 100 µM
N#Cc1sc2c(c1O)c(=O)n(-c1ccccc1)c(=S)n2-c1ccccc1,> 100 µM,> 100 µM,> 100 µM,> 100 µM,> 100 µM,> 100 µM,–,> 100 µM,> 100 µM,> 100 µM,–,> 100 µM,–
COc1ccc2c(c1)CCC(OS(=O)(=O)CC13CCC(CC1=O)C3(C)C)C2=O (stereo not drawn),41.1 µM,–,95.9 µM,> 100 µM,69.7 µM,91.9 µM,> 100 µM,–,–,> 100 µM,–,53.7 µM,> 100 µM
CN(C)Cc1cc(N=Nc2ccc(Cl)cc2)ccc1OC(=O)c1ccccc1,29.6 µM,–,29.8 µM,35.2 µM,30.5 µM,40.8 µM,25.9 µM,29.3 µM,47.8 µM,35.8 µM,45.4 µM,26.5 µM,–
CC(CCCOC(c1ccccc1)(c1ccccc1)c1ccccc1)OC(=O)Nc1ccccc1 (stereo not drawn),27.1 µM,–,34.7 µM,28.8 µM,27.4 µM,32.3 µM,–,–,–,32.4 µM,–,23.9 µM,26.8 µM
Cc1cccc2c(=O)c3cccc([C@@H](C)C(=O)O)c3oc12,> 100 µM,> 100 µM,> 100 µM,> 100 µM,> 100 µM,> 100 µM,> 100 µM,> 100 µM,–,> 100 µM,> 100 µM,> 100 µM,> 100 µM
COc1ccc(CCc2nccn2C)cc1OC,–,–,> 100 µM,> 100 µM,> 100 µM,> 100 µM,> 100 µM,> 100 µM,> 100 µM,> 100 µM,> 100 µM,–,> 100 µM
CC(=O)C1=CCC2c3[nH]c4ccccc4c3CCN2C1 (stereo not drawn),> 100 µM,–,> 100 µM,> 100 µM,> 100 µM,> 100 µM,> 100 µM,–,–,91.3 µM,–,65.6 µM,–
CC(C)C(NC(=O)C(Cc1ccccc1)NC(=O)[C@H]1CCC[C@H]1NC(=O)C(N)Cc1ccc(O)cc1)C(N)=O (stereo partly drawn),> 100 µM,> 100 µM,> 100 µM,> 100 µM,> 100 µM,> 100 µM,> 100 µM,> 100 µM,–,> 100 µM,> 100 µM,> 100 µM,> 100 µM
N#CC(C#N)=Cn1c(=S)[nH]c2ccccc21,> 100 µM,> 100 µM,> 100 µM,> 100 µM,> 100 µM,> 100 µM,> 100 µM,> 100 µM,–,> 100 µM,> 100 µM,> 100 µM,> 100 µM
CCCCNC(=S)/N=C/c1c(O)c2ccccc2[nH]c1=O,> 10 µM,> 10 µM,> 10 µM,> 10 µM,> 10 µM,> 10 µM,> 10 µM,> 10 µM,> 10 µM,> 10 µM,> 10 µM,–,> 10 µM
CC(=O)c1sc(=N)n(-c2c(C)cccc2C)c1C,> 100 µM,> 100 µM,> 100 µM,–,> 100 µM,> 100 µM,> 100 µM,> 100 µM,> 100 µM,> 100 µM,> 100 µM,> 100 µM,–
Cc1ccc(S(=O)(=O)c2c(N)n(CCN(C)C)c3nc4ccccc4nc23)cc1,> 100 µM,–,> 100 µM,> 100 µM,–,> 100 µM,> 100 µM,–,–,> 100 µM,–,58.7 µM,–
OC(C/C=N/Nc1ccccc1)(C(F)(F)Cl)C(F)(F)Cl,> 10 µM,> 10 µM,> 10 µM,> 10 µM,> 10 µM,> 10 µM,> 10 µM,> 10 µM,–,> 10 µM,> 10 µM,> 10 µM,> 10 µM

Compound,TGI (KM12 colon),TGI (T-47D breast),TGI (TK-10 renal),TGI (UACC-257 melanoma),TGI (SW-620 colon),TGI (COLO 205 colon),TGI (EKVX NSCLC),TGI (MDA-MB-435),TGI (BT-549 breast),TGI (K-562 leukemia),TGI (NCI/ADR-RES ovarian),TGI (NCI-H522 lung),TGI (CAKI-1 renal)
O=C1Oc2cc3c(c4cccc1c24)O[C@H](c1ccccc1)[C@@H](c1ccccc1)[C@@H]3c1ccc(Cl)cc1,> 100 µM,> 100 µM,> 100 µM,> 100 µM,> 100 µM,> 100 µM,> 100 µM,> 100 µM,–,> 100 µM,> 100 µM,> 100 µM,> 100 µM
CC[C@@H]1/C=C/C=C/C[C@H](C)[C@@H](O)[C@](C)(O)C(=O)[C@H](C)[C@@H](O)[C@H](C)C(=O)[C@H](C)[C@@H](O)[C@H](C)/C=C/C(=O)O[C@H]2[C@@H](C)[C@@H](CC1)O[C@@]1(CC[C@@H](C)[C@@H](CC(C)O)O1)[C@@H]2C (stereo partly drawn),11.7 µM,–,12.3 µM,3.09 µM,> 42 µM,1.99 µM,10.8 µM,6.89 µM,4.94 µM,> 38.2 µM,5.48 µM,3.89 µM,12.7 µM
CC(C)(C)S(=O)OC12CC3CC(CC(C3)C1)C2 (stereo not drawn),–,–,> 100 µM,–,> 100 µM,> 100 µM,> 100 µM,–,–,–,–,> 100 µM,–
O=c1[nH]n(Cc2ccccc2Cl)c2ccccc12,> 100 µM,–,> 100 µM,> 100 µM,> 100 µM,> 100 µM,> 100 µM,> 100 µM,–,> 100 µM,> 100 µM,> 100 µM,> 100 µM
O=C(CC1C(=O)c2ccccc2C1=C1C(=O)c2ccccc2C1=O)c1ccccc1 (stereo not drawn),> 100 µM,–,> 100 µM,> 100 µM,> 100 µM,> 100 µM,> 100 µM,–,–,> 100 µM,–,97.3 µM,> 100 µM
Cc1cc(N(CCC#N)CCC#N)ccc1C=Nc1ccc(C(=O)NN2C(=O)/C(=C/c3ccc(N(CCC#N)CCC#N)cc3)N=C2c2cc([N+](=O)[O-])ccc2Cl)cc1,> 100 µM,–,> 100 µM,> 100 µM,> 100 µM,> 100 µM,> 100 µM,–,–,> 100 µM,–,–,> 100 µM
Cn1c2ccccc2c(=O)c2[nH]c3ccccc3c21,> 100 µM,> 100 µM,> 100 µM,> 100 µM,> 100 µM,> 100 µM,> 100 µM,> 100 µM,–,> 100 µM,> 100 µM,> 100 µM,> 100 µM
COc1cc(C(=O)Oc2c(C#N)sc3c2c(=O)n(-c2ccccc2)c(=S)n3-c2ccccc2)cc(OC)c1OC,39.7 µM,> 100 µM,95.9 µM,> 100 µM,68 µM,30.7 µM,42.2 µM,36.8 µM,–,82.2 µM,41.3 µM,2.11 µM,84.3 µM
CC1(C)O[C@@H](CBr)C[C@H](C[C@H]2C[C@@H](O)C[C@@H](CCOCc3ccccc3)O2)O1,40.7 µM,38.3 µM,38.3 µM,37.8 µM,> 100 µM,54.4 µM,33 µM,55.6 µM,–,> 100 µM,41.1 µM,35.4 µM,51.3 µM
Cc1ncc([N+](=O)[O-])n1CCNC(=O)Cn1c([N+](=O)[O-])cnc1C,> 100 µM,> 100 µM,> 100 µM,> 100 µM,> 100 µM,> 100 µM,–,> 100 µM,> 100 µM,> 100 µM,> 100 µM,> 100 µM,> 100 µM
CN(C)Cc1cc(C(C)(C)C)cc(C2CCCCC2)c1O,26.4 µM,21.6 µM,29.1 µM,21.8 µM,30.2 µM,27.2 µM,24.1 µM,36.6 µM,–,24.5 µM,44.4 µM,37.2 µM,35 µM
N#Cc1c(N2CCOCC2)[nH]c(=O)c(C(c2c(Cl)cccc2Cl)c2c(O)c(C#N)c(N3CCOCC3)[nH]c2=O)c1O,32.7 µM,–,32.5 µM,34 µM,36.8 µM,26.7 µM,39 µM,30.2 µM,32.8 µM,23.2 µM,> 100 µM,28.2 µM,33.2 µM
NCc1cc(O)c(O)c(O)c1,> 100 µM,–,> 100 µM,> 100 µM,> 100 µM,> 100 µM,> 100 µM,–,–,> 100 µM,–,> 100 µM,> 100 µM
Cc1ccc(NC(=O)C(=O)Cc2cc[n+]([O-])cc2)cc1,> 100 µM,–,> 100 µM,> 100 µM,> 100 µM,> 100 µM,> 100 µM,–,–,> 100 µM,–,> 100 µM,> 100 µM
C=CCN1CN(c2ccccc2)C2(CCN(CCCC3(c4ccc(F)cc4)OCCO3)CC2)C1=O,29.8 µM,40.3 µM,33.5 µM,33.3 µM,36.9 µM,37.9 µM,40.1 µM,–,–,25.4 µM,28.2 µM,36.7 µM,75.6 µM
O=C1c2ccccc2-c2c1c(-c1cccc(Br)c1)nc1ccc3ccccc3c21,> 100 µM,> 100 µM,–,> 100 µM,> 100 µM,> 100 µM,> 100 µM,> 100 µM,> 100 µM,> 100 µM,> 100 µM,–,> 100 µM
CC#CC(O)(C(=O)OC1CC2CCC(C1)N2C)C1CCCC1 (stereo not drawn),> 100 µM,> 100 µM,> 100 µM,> 100 µM,> 100 µM,> 100 µM,> 100 µM,> 100 µM,> 100 µM,> 100 µM,> 100 µM,–,> 100 µM
CCC1CN2CCC3(c4ccccc4)CC(C(=O)OC)=CC1C23 (stereo not drawn),28.2 µM,–,58.6 µM,32 µM,31.8 µM,31.1 µM,34.1 µM,–,–,24.9 µM,–,27.2 µM,33.1 µM
COc1ccc(N=[N+]([O-])c2ccc(OC)cc2)cc1,> 100 µM,–,> 100 µM,> 100 µM,–,> 100 µM,> 100 µM,> 100 µM,> 100 µM,> 100 µM,> 100 µM,> 100 µM,> 100 µM
